Columns and labels:
[1] = molecular target: T1, AHR (Homo sapiens, UniProt P35869); test: In vitro assay 1: antagonism in human cell line (transactivation assay, U87 cells prestimulated with kynurenic acid, DRE firefly luciferase reporter); type: cell-based; set-up: host or cells: U87 glioblastoma cells, stably transfected with DRE firefly luciferase and renilla reporter constructs; conditions: 150 uM kynurenic acid, 20 hours, read-out: Assay 1: AHR-luc Hum Antagonism IC50
T1 sequence (P35869 11-848): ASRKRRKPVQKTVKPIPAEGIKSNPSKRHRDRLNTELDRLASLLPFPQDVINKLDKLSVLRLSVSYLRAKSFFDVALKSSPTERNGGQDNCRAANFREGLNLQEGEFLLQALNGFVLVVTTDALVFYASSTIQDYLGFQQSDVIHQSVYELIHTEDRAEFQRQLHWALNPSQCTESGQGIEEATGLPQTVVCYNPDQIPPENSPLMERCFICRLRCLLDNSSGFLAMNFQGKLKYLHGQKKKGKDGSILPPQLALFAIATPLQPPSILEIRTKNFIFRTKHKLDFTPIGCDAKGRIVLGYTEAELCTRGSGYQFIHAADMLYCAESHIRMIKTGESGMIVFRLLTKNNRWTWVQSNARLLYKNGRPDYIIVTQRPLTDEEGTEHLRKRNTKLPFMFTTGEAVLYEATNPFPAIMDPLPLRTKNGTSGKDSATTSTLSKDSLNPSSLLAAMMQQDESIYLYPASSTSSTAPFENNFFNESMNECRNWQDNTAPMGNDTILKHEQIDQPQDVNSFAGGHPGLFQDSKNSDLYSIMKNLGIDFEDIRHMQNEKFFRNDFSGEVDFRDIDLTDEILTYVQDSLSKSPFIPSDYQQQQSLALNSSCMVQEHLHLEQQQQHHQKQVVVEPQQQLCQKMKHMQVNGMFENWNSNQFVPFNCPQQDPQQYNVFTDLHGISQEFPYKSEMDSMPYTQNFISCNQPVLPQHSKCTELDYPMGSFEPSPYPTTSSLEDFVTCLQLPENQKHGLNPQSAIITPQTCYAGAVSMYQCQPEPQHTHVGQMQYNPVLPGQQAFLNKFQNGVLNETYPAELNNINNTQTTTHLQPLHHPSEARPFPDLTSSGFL
Procedure, shortened: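 Antagonism measured after kynurenic acid prestimulation in U87 cells that express AHR endogenously and stably harbor a firefly luciferase gene under DRE control plus a constitutive renilla construct. Positive and negative controls served for normalization.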

[2] = molecular target: T1, AHR; test: In vitro assay 2: agonism in human cell line (transactivation assay, U87 cells, DRE firefly luciferase reporter); type: cell-based; set-up: host or cells: U87 glioblastoma cells, stably transfected with DRE firefly luciferase and renilla reporter constructs; conditions: no kynurenic acid, 20 hours, read-out: Assay 2: AHR-luc Hum Agonism IC50
Procedure, shortened: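 Agonist readout: DRE firefly luciferase, with constitutive renilla reporter, in stably transfected U87 cells expressing AHR endogenously. Normalization used positive control (300 uM kynurenic acid) and negative control.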

Row | IC50 [1] [nM] | IC50 [2] [nM] | Structure (SMILES)
1 | 0.599 | > 20000 | O=C(N[C@H](CO)C(F)(F)F)c1cc(-c2ccc(Cl)cc2)nn(-c2cnsc2)c1=O [Example 198, 6-(4-Chlorophenyl)-3-oxo-2-(1,2-thiazol-4-yl)-N-[(2R)-1,1,1-trifluoro-3-hydroxypropan-2-yl]-2,3-dihydropyridazine-4-carboxamide]
2 | 0.694 | > 20000 | O=C(NC[C@H](O)C(F)(F)F)c1cc(-c2ccc(Cl)cc2)nn(-c2cnsc2)c1=O [Example 199, 6-(4-Chlorophenyl)-3-oxo-2-(1,2-thiazol-4-yl)-N-[(2S)-3,3,3-trifluoro-2-hydroxypropyl]-2,3-dihydropyridazine-4-carboxamide]
3 | 0.734 | > 20000 | O=C(NCC1(O)CCC1)c1cc(-c2ccc(Cl)cc2)nn(-c2cnsc2)c1=O [Example 200, 6-(4-Chlorophenyl)-N-[(1-hydroxycyclobutyl)methyl]-3-oxo-2-(1,2-thiazol-4-yl)-2,3-dihydropyridazine-4-carboxamide]
4 | 0.823 | > 20000 | O=C(N[C@H](CO)CF)c1cc(-c2ccc(Cl)cc2)nn(-c2cnsc2)c1=O [Example 201, 6-(4-Chlorophenyl)-N-[(2R)-1-fluoro-3-hydroxypropan-2-yl]-3-oxo-2-(1,2-thiazol-4-yl)-2,3-dihydropyridazine-4-carboxamide]
5 | 0.825 | > 20000 | C[C@@H](NC(=O)c1cc(-c2ccc(C(F)(F)F)cc2)nn(-c2cnn(C)c2)c1=O)C(C)(C)O [Example 202, N-[(2R)-3-Hydroxy-3-methylbutan-2-yl]-2-(1-methyl-1H-pyrazol-4-yl)-3-oxo-6-[4-(trifluoromethyl)phenyl]-2,3-dihydropyridazine-4-carboxamide]
6 | 0.852 | > 20000 | O=C(N[C@H](CO)CF)c1cc(-c2ccc(C(F)(F)F)cc2)nn(-c2cnsc2)c1=O [Example 203, N-[(2R)-1-Fluoro-3-hydroxypropan-2-yl]-3-oxo-2-(1,2-thiazol-4-yl)-6-[4-(trifluoromethyl)phenyl]-2,3-dihydropyridazine-4-carboxamide]
7 | 1.06 | > 20000 | C[C@@H](CO)NC(=O)c1cc(-c2ccc(C(F)(F)F)cc2)nn(-c2cnsc2)c1=O [Example 205, N-[(2S)-1-Hydroxypropan-2-yl]-3-oxo-2-(1,2-thiazol-4-yl)-6-[4-(trifluoromethyl)phenyl]-2,3-dihydropyridazine-4-carboxamide]
8 | 1.07 | > 20000 | C[C@H](NC(=O)c1cc(-c2ccc(C(F)(F)F)cc2)nn(-c2cnn(C)c2)c1=O)C(C)(C)O [Example 206, N-[(2S)-3-Hydroxy-3-methylbutan-2-yl]-2-(1-methyl-1H-pyrazol-4-yl)-3-oxo-6-[4-(trifluoromethyl)phenyl]-2,3-dihydropyridazine-4-carboxamide]
9 | 1.21 | > 20000 | O=C(N[C@H](CO)C1CC1)c1cc(-c2ccc(C(F)(F)F)cc2)nn(-c2cnsc2)c1=O [Example 207, N-[(1S)-1-Cyclopropyl-2-hydroxyethyl]-3-oxo-2-(1,2-thiazol-4-yl)-6-[4-(trifluoromethyl)phenyl]-2,3-dihydropyridazine-4-carboxamide]
10 | 1.22 | > 20000 | CC(C)(O)CNC(=O)c1cc(-c2ccc(C(F)(F)F)cc2)nn(-c2cnsc2)c1=O [Example 208, N-(2-Hydroxy-2-methylpropyl)-3-oxo-2-(1,2-thiazol-4-yl)-6-[4-(trifluoromethyl)phenyl]-2,3-dihydropyridazine-4-carboxamide]
11 | 1.24 | > 20000 | C[C@H](NC(=O)c1cc(-c2ccc(Cl)cc2)nn(-c2cnsc2)c1=O)C(C)(C)O [Example 209, 6-(4-Chlorophenyl)-N-[(2S)-3-hydroxy-3-methylbutan-2-yl]-3-oxo-2-(1,2-thiazol-4-yl)-2,3-dihydropyridazine-4-carboxamide]
12 | 1.69 | > 20000 | O=C(N[C@H](CO)C(F)(F)F)c1cc(-c2ccc(C(F)(F)F)cc2)nn(-c2cn[nH]c2)c1=O [Example 212, 3-Oxo-2-(1H-pyrazol-4-yl)-N-[(2R)-1,1,1-trifluoro-3-hydroxypropan-2-yl]-6-[4-(trifluoromethyl)phenyl]-2,3-dihydropyridazine-4-carboxamide]
13 | 1.92 | > 20000 | CC(C)(O)C(NC(=O)c1cc(-c2ccc(C(F)(F)F)cc2)nn(-c2cccnc2)c1=O)C(F)(F)F (stereo not shown) [Example 213, 3-Oxo-2-(pyridin-3-yl)-N-(1,1,1-trifluoro-3-hydroxy-3-methylbutan-2-yl)-6-[4-(trifluoromethyl)phenyl]-2,3-dihydropyridazine-4-carboxamide]
14 | 2.07 | > 20000 | O=C(N[C@H](CO)C(F)(F)F)c1cc(-c2ccc(C(F)(F)F)cc2)nn(-c2cnn(C(F)F)c2)c1=O [Example 214, 2-[1-(Difluoromethyl)-1H-pyrazol-4-yl]-3-oxo-N-[(2R)-1,1,1-trifluoro-3-hydroxypropan-2-yl]-6-[4-(trifluoromethyl)phenyl]-2,3-dihydropyridazine-4-carboxamide]
15 | 2.38 | > 20000 | O=C(NC[C@H](O)C(F)(F)F)c1cc(-c2ccc(C(F)(F)F)cc2)nn(-c2cn[nH]c2)c1=O [Example 216, 3-Oxo-2-(1H-pyrazol-4-yl)-N-[(2S)-3,3,3-trifluoro-2-hydroxypropyl]-6-[4-(trifluoromethyl)phenyl]-2,3-dihydropyridazine-4-carboxamide]
16 | 3.21 | > 20000 | Cn1cc(-n2nc(-c3ccc(C(F)(F)F)cc3)cc(C(=O)NC[C@H](O)C(F)F)c2=O)cn1 [Example 219, N-[(2S)-3,3-Difluoro-2-hydroxypropyl]-2-(1-methyl-1H-pyrazol-4-yl)-3-oxo-6-[4-(trifluoromethyl)phenyl]-2,3-dihydropyridazine-4-carboxamide]
17 | 3.63 | > 20000 | O=C(N[C@H](CO)CF)c1cc(-c2ccc(C(F)(F)F)cc2)nn(-c2cccnc2)c1=O [Example 221, N-[(2R)-1-Fluoro-3-hydroxypropan-2-yl]-3-oxo-2-(pyridin-3-yl)-6-[4-(trifluoromethyl)phenyl]-2,3-dihydropyridazine-4-carboxamide]
18 | 4.27 | > 20000 | CC(C)(O)CNC(=O)c1cc(-c2ccc(Cl)cc2)nn(-c2cnsc2)c1=O [Example 222, 6-(4-Chlorophenyl)-N-(2-hydroxy-2-methylpropyl)-3-oxo-2-(1,2-thiazol-4-yl)-2,3-dihydropyridazine-4-carboxamide]
19 | 4.31 | > 20000 | O=C(NC[C@H](O)C(F)(F)F)c1cc(-c2ccc(C(F)(F)F)cc2)nn(-c2cnn(C(F)F)c2)c1=O [Example 223, 2-[1-(Difluoromethyl)-1H-pyrazol-4-yl]-3-oxo-N-[(2S)-3,3,3-trifluoro-2-hydroxypropyl]-6-[4-(trifluoromethyl)phenyl]-2,3-dihydropyridazine-4-carboxamide]
20 | 5.04 | > 20000 | Cc1cc(-n2nc(-c3ccc(Cl)cc3)cc(C(=O)NC[C@H](O)C(F)(F)F)c2=O)cs1 [Example 225, 6-(4-Chlorophenyl)-2-(5-methyl-3-thienyl)-3-oxo-N-[(2S)-3,3,3-trifluoro-2-hydroxypropyl]-2,3-dihydropyridazine-4-carboxamide]
21 | 5.91 | > 20000 | C[C@H](NC(=O)c1cc(-c2ccc(C(F)(F)F)cc2)nn(-c2cccnc2)c1=O)C(C)(C)O [Example 226, N-[(2S)-3-Hydroxy-3-methylbutan-2-yl]-3-oxo-2-(pyridin-3-yl)-6-[4-(trifluoromethyl)phenyl]-2,3-dihydropyridazine-4-carboxamide]
22 | 13.3 | > 20000 | C[C@H](NC(=O)c1cc(-c2ccc(C(F)(F)F)cc2)nn(-c2cnn(C(F)F)c2)c1=O)C(C)(C)O [Example 228, 2-[1-(Difluoromethyl)-1H-pyrazol-4-yl]-N-[(2S)-3-hydroxy-3-methylbutan-2-yl]-3-oxo-6-[4-(trifluoromethyl)phenyl]-2,3-dihydropyridazine-4-carboxamide]
23 | 8.23 | 17200 | C[C@H](NC(=O)c1cc(-c2ccc(C(F)(F)F)nc2)nn(-c2cnsc2)c1=O)C(C)(C)O [Example 233, N-[(2S)-3-Hydroxy-3-methylbutan-2-yl]-3-oxo-2-(1,2-thiazol-4-yl)-6-[6-(trifluoromethyl)pyridin-3-yl]-2,3-dihydropyridazine-4-carboxamide]

— patent US12522594B2, “2-heteroaryl-3-oxo-2,3-dihydropyridazine-4-carboxamides for the treatment of cancer” (Deutsches Krebsforschungszentrum, priority 2017, dated 2026)
